From patent publication US20230392180A1, “MICROSCOPIC IMAGING AND ANALYSES OF EPIGENETIC LANDSCAPE” (Sanford Burnham Prebys Medical Discovery Institute, priority 2020, published 2023)
Entries after “also recorded” stand apart in the source; their conditions may differ. One block for each compound: values may come before it.

Legend:
GBM2 cells [1] = assay: RNAseq and transcriptomic analysis; format: cell-based, human
Procedure: RNAseq and transcriptomic analysis: Total RNA was isolated from GBM2 cells using the RNeasy Kit (Qiagen), 0.5 ug total RNA was used for isolation of mRNAs and library preparation. Library preparation and sequencing was conducted by the SBP genomics core (Sanford-Burnham NCI Cancer Center Support Grant P30 CA030199). PolyA RNA was isolated using the NEBNext® Poly(A) mRNA Magnetic Isolation Module and barcoded libraries were made using the NEBNext® Ultra II™ Directional RNA Library Prep Kit for Illumina® (NEB, Ipswich MA). Libraries were pooled and single end sequenced (1X75) on the Illumina NextSeq 500 using the High output V2 kit (Illumina). Read data was processed in BaseSpace. Reads were aligned to Homo sapiens genome (hg19) using STAR aligner with default settings. Differential transcript expression was determined using the Cufflinks Cuffdiff package. Go term enrichment analysis was conducted using PANTHER v11 using all genes identified as differentially expressed following either serum or Bmp4 treatment. For heat maps showing fold change in expression the FPKM values in each population were divided by the average FPKM values of untreated GBM2. To highlight differences in expression levels between serum and Bmp4 treated GBM2 cells the FPKM values in each sample were z-scored. Zscore=(FPKMObservation−FPKMAverage)/FPKMSD (FPKMObservation−FPKM value obtain through sequencing; FPKMAverage−average of all FPKM values in all samples for a certain gene; FPKMSD−standard deviation of FPKM values for a certain gene). Heat maps were generated using Microsoft Excel conditional formatting function.
Correlation of transcriptomic and image-based profiles: Euclidean distance between untreated, serum or Bmp4 treated GBM2 cells (triplicates for each) was calculated using either transcriptomic data (FPKM) or texture features. Pearson's correlation coefficient (R) was transformed to a t-value using the formula (t=R×SQRT(N−2)/SQRT(1−R2) where N is the number of samples, and R is Pearson correlation coefficient, and the p-value was calculated using Excel tdist(t) function. For compound prioritization, the Euclidean distance between compound treated and serum or Bmp4 treated GBM2 cells was calculated based on either transcriptomic data (FPKM) or image features. The average distance to both serum and Bmp4 treatments was normalized to the average distance of untreated cells to serum and Bmp4.
RNAseq and transcriptomic analysis: Total RNA was isolated from GBM2 cells using the RNeasy Kit (Qiagen), 0.25 μg total RNA was used to isolate mRNAs and for library preparation. Library preparation and sequencing were conducted by the SBP genomics core (Sanford-Burnham NCI Cancer Center Support Grant P30 CA030199). PolyA RNA was isolated using the NEBNext® Poly(A) mRNA Magnetic Isolation Module, and barcoded libraries were made using the NEBNext® Ultra II™ Directional RNA Library Prep Kit for Illumina® (NEB, Ipswich MA). Libraries were pooled and single-end sequenced (1×75) on the Illumina NextSeq 500 using the High-Output V2 kit (Illumina). Read data, processed in BaseSpace, were aligned to Homo sapiens genome (hg19) using STAR aligner with default settings. Differential transcript expression was determined using the Cufflinks Cuffdiff package. For heat maps showing fold change in expression, FPKM values in each HDACi-treated population were divided by the average FPKM values of DMSO-treated GBM2 and values shown as log 2 of the ratio. Go enrichment analysis was conducted using PANTHER v11 using all genes identified as differentially expressed following either serum or Bmp4 treatment. To highlight differences in expression levels between serum- and Bmp4-treated GBM2 cells, FPKM values in each sample were z-scored. Zscore=(FPKMObservation−FPKMAverage)/FPKMSD (FPKMObservation−FPKM value obtain through sequencing; FPKMAverage−average of all FPKM values in all samples for a certain gene; FPKMSD−standard deviation of FPKM values for a certain gene). […]

GBM cell lines = assay: Immunostaining of core transcription factors and GFAP after serum or Bmp4 treatment; format: cell-based, human
Procedure: Differentiation treatment: For TPC differentiation treatments cells were cultured in DMEM:F12 Neurobasal media (1:1), 1% B27 supplement, 10% BIT 9500, 1 mM glutamine supplemented with either Bmp4 (100 ng/ml; R&D Systems) or FBS (10%).
Cell staining: Cells were rinsed with PBS and fixed in 4% paraformaldehyde in PBS for 10 min at room temperature. After blocking with PBSAT (2% BSA and 0.5% Triton X-100 in PBS) for 1 h at room temperature, the cells were incubated overnight at 4° C. with primary antibodies diluted in PBSAT. The primary antibodies are listed in Table 2, and the appropriate fluorochrome-conjugated secondary antibodies were used at 1:500 dilution. Nuclear co-staining was performed by incubating cells with Hoechst-33342 nuclear dye.
Microscopy and image analysis: Unless stated otherwise, for MIEL analysis cells were imaged on an Opera QEHS high-content screening system (PerkinElmer) using ×40 water immersion objectives. Images collected on the Opera were analyzed using Acapella 2.6 (PerkinElmer). […] Features of nuclear morphology, fluorescence intensity inter-channel co-localization, and texture features (Image moments, Haralick, Threshold Adjacency Statistics) were calculated using custom algorithms (scripts available from www.andrewslab.ca). […] Between 3 and 8 fields per well were acquired and analyzed using Acapella 2.6 (PerkinElmer). […]

TPCs = assay: Growth rate of treated glioblastoma cells; conditions: 3 days of serum or Bmp4 treatment
[2] = female, human
GBM2 cells [3] = assay: Epigenetic Drug Screening (MIEL); format: cell-based, human
Excerpt: Data processing: The image features-based profile for each cell population (e.g., cell types, treatments, technical repetition) was represented using a vector (center of distribution vectors) in which every element is the average value of all cells in that population for a particular feature. The vector's length is given by the number of features chosen (262 per histone modification). Raw feature values were normalized by z-scoring to the average and standard deviation of all populations being compared. All cells in each population were used to calculate center vectors, and each population contained at least 50 cells. Activity level for each drug was determined by calculating the distance from DMSO. […] Euclidean distance of each compound and each DMSO replicate to the DMSO center vector was calculated. Distances were z-scored to the average distance and standard deviation of DMSO replicates from the DMSO center vector. Transcriptomic-based profile for each cell population was represented using a vector in which every element is the z-scored FPKM value for a single gene in that population. […] Raw feature values for all center vectors of all populations in each plate were normalized to the plate-wise DMSO vector; normalized feature values were z-scored as above. […] Activity levels were calculated as above. […] Cell counts were z-scored against the average and standard deviation of all DMSO replicates. […]

H3K27ac and H3K27me3 = H3K27ac and H3K27me3 immunofluorescence intensity; format: cell-based, human; conditions: GBM2, low concentrations (<30 μM), compared with Pan HDAC inhibitors TSA, SAHA
[4] = Variance of chromatin and epigenetic landscape (VITA) score; format: in vivo, mice; conditions: after treatment
Excerpt: In some instances, in addition to computing the values of individual cell nucelli in multidimensional space of statistical texture features, coefficient of variance (CV) is used, defined as the ratio of the standard deviation a sigma to the mean p, namely. CV for each field of view, well, technical replicate, and biological replicate such organs tissues and cells from individual mice could be computed based on individual nuclei and the results are stable using 200-2000 nuclei per experimental replica (e.g., individual wells). […] This means that quantitatively CV can be informative values serving as a quantitative measurement of individual organ, tissue, or cell type from individual animals.

C57BL/6J male mice = assay: miBioAge (MIEL-CLOCK) after doxorubicin injection; format: in vivo
Procedure: This can be shown by employing classical treatments such as doxorubicin (DOX), paclitaxel (PTX), or temozolomide (TMZ), known to promote hallmarks of aging to compare miBioAge readouts in blood (PBMC and CD3+ cells) and liver hepatocytes to chronologically matched untreated controls. Blood was collected on day 0 (retro-orbital) from 3-month old C57BL/6J male mice and 22-month old C57BL/6J male mice. On day 1, doxorubicin was injected into the experimental mice. All controls received PBS injection. Blood was collected on day 20 (retro-orbital) from all mice and liver hepatocytes on day 21. Cells were analyzed 21 days after treatment to avoid the effects of acute stress response and favor the aging-related phenomena.

Compound: Bmp4: Bmp4 (100 ng/ml; R&D Systems), positive control inducing TPC differentiation
expression of most genes of the transcriptomic stemness signature (GBM2 cells [1]; GBM2, 3 days treatment, vs untreated cells): reduced
GFAP expression (GBM cell lines): increased
expression of transcription factors Sox2, Sall2, Brn2 and Olig2 (GBM cell lines; 3 days treatment, cell line dependent): down regulated; also recorded: downregulated
growth rate of TPCs (TPCs): reduced; also recorded: attenuate

estimated concentrations reached following repeated administration [2]: ~10 µM
Compound: CC(=O)S[C@@H]1CC2=CC(=O)CC[C@]2(C)[C@H]2CC[C@@]3(C)[C@@H](CC[C@@]34CCC(=O)O4)[C@H]12 [spironolactone]

estimated concentrations reached following repeated administration [2]: ~10 µM
Compound: Oc1ccc(O)cc1 [Hydroquinone]

Compound: CCCC(CCC)C(=O)O [valproic acid]
transcriptomic changes (genes altered vs DMSO) (GBM2 cells [1]; GBM2, 24 hours, valproic acid 15 μM): not reflected
functional classification by discriminant analysis (MIEL) (GBM2 cells [3]; 10 μM, 24 hours, 85 compounds): active but were misclassified
epigenetic changes detected by MIEL (GBM2 cells [3]; 24-hour treatment, low concentrations (<30 μM)): detectable epigenetic changes
H3K27ac and H3K27me3 immunofluorescence intensity (H3K27ac and H3K27me3): no increase in histone acetylation or decrease in histone methylation

Compound: COc1cccc2c1C(=O)c1c(O)c3c(c(O)c1C2=O)C[C@@](O)(C(=O)CO)C[C@@H]3O[C@H]1C[C@H](N)[C@H](O)[C@H](C)O1 [DOX, doxorubicin]
VITA score [4]: trend for the increase; also recorded: increases
miBioAge distance (C57BL/6J male mice; 3-month, compared to 3-month control): increases
miBioAge signatures in CD3+ cells (C57BL/6J male mice; blood collected on day 20): trend shift
miBioAge signatures in PBMC (C57BL/6J male mice; blood collected on day 20): trend shift
miBioAge signatures in liver hepatocytes (C57BL/6J male mice; cells analyzed 21 days after treatment): towards the old age
